Measured values from patent US20210290606A1, “METHOD TO PREVENT AND TREAT OSTEOARTHRITIS BY CALCIUM CHANNEL BLOCKERS, ANGIOTENSIN CONVERTING ENZYME INHIBITORS, AND ANGIOTENSIN RECEPTOR BLOCKERS” (priority 2018, published 2021).
Where two headings read alike, the source gives them in different places.

Assays:
osteoarthritis [1] = conditions: cited from earlier work; for clinical difference between the high potency narcotics and tramadol: human, in vivo
[2] = system: osteoarthritis syndrome in both knees; experiment: Composition given by intra-articular injection in one knee, other knee left untreated; type: in vivo, human; conditions: patient
Experimental: A patient is diagnosed with osteoarthritis syndrome in both knees. […] A patient is diagnosed with osteoarthritis syndrome in both knees. A composition comprising the ACE inhibitor enalapril is administered by intra-articular injection in one knee while the other knee is left untreated. […] A patient is diagnosed with osteoarthritis syndrome in both knees. A composition comprising the angiotensin receptor blocker losartan is administered by intra-articular injection in one knee while the other knee is left untreated.

[3] = system: osteoarthritis syndrome in both knees; experiment: Composition applied to the skin in the region of one knee, other knee left untreated; type: in vivo, human; conditions: patient, topical application to skin in the region of one knee
From the text: A patient is diagnosed with osteoarthritis syndrome in both knees.
A patient is diagnosed with osteoarthritis syndrome in both knees. A composition comprising the ACE inhibitor enalapril is directly applied to the skin in the region of one knee while the other knee is left untreated.
A patient is diagnosed with osteoarthritis syndrome in both knees. A composition comprising the angiotensin receptor blocker losartan is directly applied to the skin in the region of one knee while the other knee is left untreated.

osteoarthritis [4] = conditions: 6 trials, 1501 participants, cited from earlier work

Q: With CC(=O)Nc1ccc(O)cc1 [Tylenol] as the compound, how does the clinical effect (osteoarthritis [1]; meta-analysis of 74 randomized clinical trials, 58556 patients) read?
A: did not have a clinically relevant effect

Q: Which results are given for CCOC(=O)[C@H](CCc1ccccc1)N[C@@H](C)C(=O)N1CCC[C@H]1C(=O)O [enalapril]?
A: symptoms of osteoarthritis syndrome, treated knee versus untreated knee [2]: reduced symptoms of osteoarthritis syndrome; symptoms of osteoarthritis syndrome, treated knee versus untreated knee [3]: reduced symptoms of osteoarthritis syndrome

Q: What does the source list for N[C@H]1C(O)O[C@H](CO)[C@@H](O)[C@@H]1O.O=S(=O)(O)O (stereo partly shown) [glucosamine sulfate]?
A: pain and function (osteoarthritis [1]; industry-sponsored study of 604 patients): statistical significant reduction in pain and increase in function; effect versus placebo (osteoarthritis [1]; meta-analysis of 25 randomized placebo controlled clinical trials, 3458 patients): failed to find any significant effects; preventive effect on osteoarthritis (osteoarthritis [4]; after 3 years, benefit clinically irrelevant): small statistical effect; preventive effect on osteoarthritis (osteoarthritis [4]; after one year): no preventive effect

Q: What does the source list for CCCCc1nc(Cl)c(CO)n1Cc1ccc(-c2ccccc2-c2nn[nH]n2)cc1 [losartan]?
A: symptoms of osteoarthritis syndrome, treated knee versus untreated knee [2]: reduced symptoms of osteoarthritis syndrome; symptoms of osteoarthritis syndrome, treated knee versus untreated knee [3]: reduced symptoms of osteoarthritis syndrome

Q: With CN1CC[C@]23c4c5ccc(O)c4O[C@H]2[C@@H](O)C=C[C@H]3[C@H]1C5 [morphine] as the compound, how does the “clinical difference between the high potency narcotics and tramadol” value (osteoarthritis [1]) read?
A: no clinically observable difference

Q: For COc1ccc2c3c1O[C@H]1C(=O)CC[C@@]4(O)[C@@H](C2)N(C)CC[C@]314 [oxycodone], which “clinical difference between the high potency narcotics and tramadol” value (osteoarthritis [1]) is on record?
A: no clinically observable difference

Q: With COc1cccc(C2(O)CCCCC2CN(C)C)c1 (stereo not shown) [tramadol] as the compound, how does the “clinical difference between the high potency narcotics and tramadol” value (osteoarthritis [1]) read?
A: no clinically observable difference

Q: With chondroitin sulfate as the compound, how does the “effect on pain and function” value (osteoarthritis [1]; meta-analysis of 20 randomized clinical studies, 3846 patients, called negligible) read?
A: 0.003%
